Read-outs that look alike come from different tables or passages of the source.
Columns and labels:
[1] = test system: BLM-induced pulmonary fibrosis; assay: BLM-induced murine model of pulmonary fibrosis; type: in vivo, CD-1 mice
Protocol: PF was induced in six-weeks old female CD-1 mice purchased from Harlan. Animals were randomly divided into three groups (n = 10/group): PBS plus acetate buffer control, BLM plus acetate buffer and BLM plus AMD070.
On day 0, mice were anaesthetized with isoflurane and PF was induced by BLM administration. Specifically, BLM (C103610, Fresenius Kabi Canada, 2U/kg) in 40 μL PBS or vehicle control (PBS) was administrated by non-surgical endotracheal instillation with sterile disposable plastic loading pipette tips. The next day, AMD070 (Shanghai Haoyuan Chemexpress Co., 400 μg/mouse in 200 μL 30 mM acetate buffer) or 200 μL of 30 mM acetate buffer (pH 5) was administrated via oral gavage (PO) with a 20G feeding needle. AMD070 or acetate buffer vehicle was administrated daily for 21 consecutive days. Animals were euthanized with avertin overdose on day 22.
Following perfusion with PBS, lungs were fixed in 4% paraformaldehyde at 4°C for 2 days. These were embedded in paraffin, sectioned at 1 mm apart and stained with hematoxylin-eosin (H&E) and Masson’s Trichrome stains. For quantitation of percent PF, entire lung and fibrotic areas were outlined. Percent fibrotic area was calculated by dividing fibrotic area (mm^2) by total lung area (mm^2) and multiplying by 100. For H&E stained slides, two histology slides/animal were selected from the central region of the lungs and analyzed whereas only one histology slide/animal was analyzed with Masson’s Trichrome stained slides. These analyses were performed with Image J and the analyst was blinded to sample identification.

[2] = test system: leukocyte mobilization (blood cell counts); assay: Hematology measurements after SC administration; type: in vivo, C57BL/6 mice; details: SC 400 μg/mouse; data not shown
Protocol: Non fasted C57BL/6 mice at 7 to 8 weeks of age from Harlan were sacrificed at 0.5, 1, 3, 24 and 48 hours (n = 3/time point) post administration of AMD070 (in 30 mM acetate buffer, pH 5) (400 μg/mouse). All preceding procedures were same as those for AMD070 PK studies via IP injections.

[3] = test system: mobilization of bone marrow hematopoietic progenitors; set-up: method as in PMID 17452489; details: human subjects; cited from earlier work
[4] = AMD070 PK study via IP injection: plasma, lung and liver concentration; type: in vivo, C57BL/6 mice; details: IP 400 μg/mouse; for concentration at 6 h: six hours post administration; for Kp: C57BL/6, read-out: Tissue AUC/Plasma AUC
Protocol: At each endpoint, animals were euthanized with CO2 and blood collected via cardiac puncture. An aliquot was set aside at room temperature for hematology measurements with remaining blood processed for plasma for drug concentration determination. Lungs and livers were also collected and immediately frozen on dry ice and stored at -70°C until determination of drug concentration. AMD070 concentrations in mouse plasma were determined using protein precipitation extraction followed by UPLC-MS/MS analysis. Briefly, 100 μL aliquots of plasma were transferred to individual wells of an Isolute PPT+ (Biotage) array plate containing 300 μL of 0.1% formic acid (FA) in acetonitrile (ACN). […] The sample residue was then reconstituted into 200 μL of 0.1/5/95 FA/ACN/H2O (v/v/v) and analyzed using reverse phase chromatography (gradient elution) combined with multiple reaction monitoring acquisition (MRM). The mobile phases consisted of 0.1% FA in H2O and 0.1% FA in ACN. AMD070 was extracted from lung and liver tissue by homogenization under basic conditions followed by liquid-liquid extraction in tert-butyl methyl ether (TBME) and ethyl acetate respectively. In summary, 50 mg of lung or liver tissue pieces were cut, weighed, and transferred to homogenization tubes. 25 μL of deionized water for lung and 10 μL for liver were added to each tube, followed by the addition of zirconium (Zr) homogenization beads. The samples were homogenized for approximately 20 seconds in the BeadBeater, followed by 1 minute of centrifugation at room temperature at 13,520 rcf. 200 μL of 1 N NaOH was then transferred to each tube, followed by a second homogenization/centrifugation cycle as described above. […] The dried residue was reconstituted into 0.1/5/95 TFA/ACN/H2O and analyzed using reverse phase chromatography (gradient elution) combined with MRM acquisition in positive electrospray mode (ES+). The mobile phases consisted of 0.1% TFA in H2O and 0.1% TFA in ACN.

[5] = test system: leukocyte mobilization (blood cell counts); assay: Hematology measurements after IP administration (leukocyte mobilization); type: in vivo, C57BL/6 mice; details: IP 400 μg/mouse
Protocol: At each endpoint, animals were euthanized with CO2 and blood collected via cardiac puncture. An aliquot was set aside at room temperature for hematology measurements with remaining blood processed for plasma for drug concentration determination. Lungs and livers were also collected and immediately frozen on dry ice and stored at -70°C until determination of drug concentration.

[6] = BLM plus AMD070 400 μg/mouse PO daily 21 days, day 22, mean, n = 9

SMILES: NCCCCN(Cc1nc2ccccc2[nH]1)[C@H]1CCCc2cccnc21 [AMD070]
- lung fibrosis, Masson's Trichrome [1, 6]: 10.5%
- lung inflammation, H & E stained lungs (percent surface area) [1, 6]: 14.2%
- survival over the duration of the study ([1]; BLM plus AMD070 400 μg/mouse PO daily, 22 days, BLM plus acetate buffer 40%): 90%
- blood cell count changes compared with IP [2]: magnitude of these changes were lower
- time of peak mobilization of bone marrow hematopoietic progenitors post dosing [3]: two to three
- Cmax ([4]; C57BL/6, 400 ug, Liver): 14300 ng/g
- Tmax ([4]; C57BL/6, 400 ug, Liver): 30 min
- Cmax ([4]; C57BL/6, 400 ug, Lung): 6140 ng/g
- Tmax ([4]; C57BL/6, 400 ug, Lung): 30 min
- Cmax ([4]; C57BL/6, 400 ug, Plasma): 770 ng/mL
- Tmax ([4]; C57BL/6, 400 ug, Plasma): 30 min
- AUC ([4]; C57BL/6, 400 ug, Plasma, read-out: AUC (all time points)): 1240 ng·h/mL
- concentration at 6 h ([4]; C57BL/6, liver, read-out: liver concentration): 6470 ng/g
- concentration at 6 h ([4]; C57BL/6, lung, read-out: lung concentration): 3740 ng/g
- concentration at 6 h ([4]; C57BL/6, plasma, read-out: plasma concentration): 45 ng/mL
- Kp ([4]; Liver): 90.7
- Kp ([4]; Lung): 61.2
- liver concentration (peak) ([4]; 30 minutes post administration): 14.3 µg/g
- lung concentration (peak) ([4]; 30 minutes post administration): 6.14 µg/g
- plasma concentration (peak) ([4]; 30 minutes post administration): 770 ng/mL
- RBC levels [5]: unaffected
- Tmax of WBC increase [5]: 180 min
- WBC counts [5]: significant but transient increase
- lymphocytes (WBC differential) [5]: increased
- neutrophils (WBC differential) [5]: increased
- platelet levels [5]: unaffected
